# Assay results published in patent publication US20240392241A1, “METHOD FOR PRODUCING CELL MASS INCLUDING PITUITARY TISSUE AND CELL MASS” (SUMITOMO CHEMICAL COMPANY, LIMITED, priority 2021, published 2024).
# System: human iPS cells (201B7 strain)
# Assay: Immunostaining of ACTH and E-cadherin in cell aggregates on day 103 (Example 7)
# Format: cell-based
# Protocol: According to the steps shown in FIG. 10A, suspension culturing was performed using human iPS cells (201B7 strain) in the same manner as in Example 4, and continued until day 103. Using the obtained cell aggregates, cryosections were prepared in the same manner as in Example 3. The obtained sections were subjected to immunostaining using anti-ACTH antibody (manufactured by Fitzgerald Industries) and anti-E-cadherin antibody (manufactured by Takara Bio Inc.), and the nucleus was stained with DAPI. […] The scale bar at the bottom right of FIG. 10B indicates 200 μm.
compound,measurement,setting,value
"Cc1cc(NC(=O)c2cccc(NC(=O)/C=C/CN(C)C)c2)ccc1Nc1nccc(-c2cccnc2)n1 [JNK—IN-8, (E)-3-(4-(dimethylamino)but-2-enamido)-N-(3-methyl-4-((4-(pyridin-3-yl)pyrimidin-2-yl)amino)phenyl)benzamide]",proportion of ACTH-positive cells in the entire cell aggregate,"JNKi(+), mean±SEM, n=8-12",42.2±4.4 % of total cells
same,proportion of E-cadherin-positive cells in the layer covering the surface of cell aggregates vs non-addition control,JNK—IN-8 added,higher
